According to publication PMC7766225, “Structure-Based Discovery and Bioactivity Evaluation of Novel Aurora-A Kinase Inhibitors as Anticancer Agents via Docking-Based Comparative Intermolecular Contacts Analysis (dbCICA)” (Molecules, 2020):

target: T1, Aurora-A kinase (Homo sapiens, UniProt O14965); experiment: FRET-based Z'-LYTE kinase enzyme inhibition assay; assay type: biochemical; details: 10 µM, duplicates, Z'-LYTE
T1 construct: purchased Invitrogen (Carlsbad, CA, USA)
T1 sequence (O14965 1-403): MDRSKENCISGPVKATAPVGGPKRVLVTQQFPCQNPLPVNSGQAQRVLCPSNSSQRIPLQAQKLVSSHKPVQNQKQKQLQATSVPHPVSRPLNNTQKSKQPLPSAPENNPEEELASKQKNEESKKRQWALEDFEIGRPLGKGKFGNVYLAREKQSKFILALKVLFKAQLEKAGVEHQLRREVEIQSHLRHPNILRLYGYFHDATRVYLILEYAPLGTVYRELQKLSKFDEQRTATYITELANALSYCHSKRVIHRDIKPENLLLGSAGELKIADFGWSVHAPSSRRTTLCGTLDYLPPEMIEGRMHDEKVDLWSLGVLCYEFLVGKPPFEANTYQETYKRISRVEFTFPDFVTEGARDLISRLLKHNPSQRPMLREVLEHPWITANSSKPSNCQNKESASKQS
Method: This bioassay was conducted using Z′-LYTE® kinase assay (Invitrogen, Carlsbad, CA, USA) [68, 69]. This biochemical assay depends on fluorescence emission as detection method utilizing a synthetic fluorescence resonance energy transfer (FRET) peptide with two fluorophores: coumarin that work as donor and fluorescein as acceptor [69]. Each hit or compound was dissolved in DMSO to form 10 mM stock solution. Hits were screened at 10 μM concentration. The bioassay was performed in black 384-well plate. For each assay, 100 nL of tested compound stock solution (10 mM) was mixed with 2.4 μL kinase buffer, 5 μL (peptide substrate/Aurora-A Kinase) mixture, and 2.5 μL ATP solution.
The tests were conducted in duplicates.

| Structure (SMILES) | % Inhibition at 10 µM [%] |
| --- | --- |
| COc1ccc(-c2oc3ccc(C)cc3c(=O)c2O)cc1 [Hit 80] | 20 |
| CCCCN[C@@H](c1ccc(OC)cc1)[C@H](O)c1ccc(OC)cc1 [Hit 81] | 3 |
| COc1ccc(/C=N/N=C/c2ccc(OC)cc2)cc1 [Hit 82] | 5 |
| CC(Cc1ccccc1)=NNS(=O)(=O)c1ccc([N+](=O)[O-])cc1 [Hit 83] | 7 |
| CC(=NNS(=O)(=O)c1ccc([N+](=O)[O-])cc1)c1ccc(C)cc1 [Hit 86] | 12 |
| O=C(NCCc1ccccc1)c1ccc([N+](=O)[O-])cc1 [Hit 87] | -4 |
| COc1ccc(C=NNS(=O)(=O)c2ccc(NC(C)=O)cc2)cc1 [Hit 89] | 2 |
| COc1ccc(C(=O)OCc2ccc3c(c2)OCO3)cc1 [Hit 90] | -2 |
| CCNC(Cc1ccc(OC)cc1)c1ccc(OC)cc1 (stereo not shown) [Hit 91] | -2 |
| COc1ccc(C(Cc2ccc(Cl)cc2)NCCO)cc1 (stereo not shown) [Hit 92] | 3 |
| COc1ccc2c(ccc[n+]2CC(=O)c2ccc(SC)cc2)c1 [Hit 93] | 14 |
| COc1ccc(C(=O)OCc2ccc3c(c2)OCO3)cc1 [Hit 94] | -2 |
| COc1ccc(CC(C)NCC(O)c2ccc(O)c(O)c2)cc1 (stereo not shown) [Hit 95] | 30 |
| COc1cccc(/C=C/C(=O)/C=C/C=C/c2ccccc2)c1 [Hit 96] | 0 |
| CCOC(=O)C(=Cc1cc(C)c(OC(C)=O)c(OC)c1)NC(=O)c1ccccc1 [Hit 97] | -4 |
| COc1ccc(CCc2ccc3cc(OC)ccc3n2)cc1 [Hit 98] | -5 |
| COc1ccc(C(=O)OCc2ccc3c(c2)OCO3)cc1 [Hit 99] | 5 |
| COc1ccc(CNCCNCc2ccc(OC)cc2)cc1 [Hit 100] | 7 |
| COc1ccc(NC(=O)CC(=O)Nc2ccc(OC)cc2)cc1 [Hit 101] | 6 |
| CC(=O)Nc1ccc(S(=O)(=O)NN=Cc2ccc(C)cc2)cc1 [Hit 102] | 6 |
| CC(=O)Nc1ccc(S(=O)(=O)NN=Cc2cc(Cl)ccc2O)cc1 [Hit 103] | 12 |
| NC[C@@H](O)c1ccc(Nc2ccnc3cc(Cl)ccc23)cc1 [Hit 104] | 23 |
| COc1ccc(C(=O)[C@H](CN(C)C)c2ccc(OC)cc2)cc1 [Hit 105] | 1 |

| Structure (SMILES) | % Inhibition at 10 µM [%] |
| --- | --- |
| Cc1ccc[n+](CC(=O)c2ccc([N+](=O)[O-])cc2)c1 [Hit 106] | 6 |
| CC(Cc1ccccc1)NCC(=O)c1ccc(O)c(O)c1 (stereo not shown) [Hit 107] | 25 |
| COc1ccc(NC(=O)c2ccc(Cl)cc2Cl)cc1 [Hit 108] | -7 |
| COc1ccc(C(=O)Oc2ccc(C=O)cc2OC)cc1 [Hit 109] | -142 |
| CCOc1ccc(N=C(C)Nc2ccc(OCC)cc2)cc1 [Hit 110] | 3 |
| C[n+]1c(/C=C/c2ccc([N+](=O)[O-])cc2)oc2ccccc21 [Hit 111] | 1 |
| COc1ccc(C(=O)C=Cc2ccc3c(c2)OCO3)cc1 [Hit 113] | 8 |
| COc1ccc(C(=O)CCCCC(=O)c2ccc(OC)cc2)cc1 [Hit 114] | 4 |
| COc1ccc(CCCCCCc2ccc(OC)cc2)cc1 [Hit 115] | -1 |
| NOS(=O)c1ccc(N=CC=Cc2ccccc2)cc1 (stereo not shown) [Hit 116] | 21 |
| COc1ccc(CC(=O)c2ccc(OC)c(OC)c2)cc1OC [Hit 117] | 7 |
| O=[N+]([O-])c1cccc(S(=O)(=O)Nc2ccc(Cl)cc2)c1 [Hit 118] | 7 |
| CC[C@@H](C(=O)c1ccc(OC)cc1)c1ccc(OC)cc1 [Hit 119] | -3 |
| COc1ccc(C[N+](C)(C)Cc2ccc(OC)cc2)cc1 [Hit 120] | -2 |
| COc1ccc(C=Cc2ccc3ccccc3n2)cc1 [Hit 121] | -2 |
| COc1ccc(CCC(N)c2ccc(OC)cc2)cc1 (stereo not shown) [Hit 122] | -1 |
| COc1cccc(C(N)CCc2cc(OC)c(OC)c(OC)c2)c1 (stereo not shown) [Hit 124] | -2 |
| CCOc1ccc(NC(=O)Nc2ccc(OCC)cc2)cc1 [Hit 125] | -1 |
| CCC(=Cc1ccc(OC)cc1)C(=O)c1ccc(OC)cc1 [Hit 126] | -2 |
| COc1ccc(OC(=O)c2ccc(Cl)cc2)cc1 [Hit 127] | 0 |
| COc1ccc(C=Cc2ccc(Cl)cc2)cc1 [Hit 128] | -5 |
| COc1ccc(C=NCCN=Cc2ccc(OC)cc2)cc1 [Hit 129] | 3 |
| O=C(OCC=Cc1ccccc1)c1ccc([N+](=O)[O-])cc1 [Hit 131] | 3 |

| Structure (SMILES) | % Inhibition at 10 µM [%] |
| --- | --- |
| Cc1ccc(S(=O)(=O)Nc2ccc3cc([N+](=O)[O-])ccc3c2[N+](=O)[O-])cc1 [Hit 132] | 22 |
| COc1ccc(C2OC(c3ccc(OC)cc3)c3ccccc32)cc1 (stereo not shown) [Hit 133] | 3 |
| COc1ccc(N=Nc2ccc(OC)cc2)cc1 [Hit 134] | 8 |
| COc1ccc(/N=N/c2ccc(O)cc2)cc1 [Hit 135] | 7 |
| O=[N+]([O-])c1ccc(S(=O)(=O)NN=Cc2ccco2)cc1 [Hit 136] | 5 |
| O=C(Oc1ccc(Cl)cc1Cl)c1ccc([N+](=O)[O-])cc1 [Hit 137] | -30 |
| COc1ccc(NC(=O)c2ccc(Cl)cc2)cc1 [Hit 138] | -1 |
| O=C(NC(Cc1ccc2c(c1)OCO2)C(=O)O)c1ccccc1 (stereo not shown) [Hit 139] | 6 |
| COc1ccc([C@@H](O)Cc2ccc(Cl)cc2)cc1 [Hit 140] | -7 |
| O=[N+]([O-])c1ccc(COc2ccc(Cl)cc2)cc1 [Hit 142] | -3 |
| CN(C)CC(O)c1ccc(C=Cc2ccc(Cl)cc2)cc1 (stereo not shown) [Hit 143] | -72 |
| CCCCNC(C(=O)c1ccc(OC)cc1)c1ccc(OC)cc1 (stereo not shown) [Hit 144] | 0 |
| COc1ccc(C(N)C(O)c2ccc(OC)cc2)cc1 (stereo not shown) [Hit 145] | 0 |
| Cc1cc[n+](CC(=O)c2ccc([N+](=O)[O-])cc2)cc1 [Hit 146] | 4 |
| O=C(CNCCCc1ccccc1)c1ccc(O)c(O)c1 [Hit 147] | 14 |
| COc1ccc(N=[N+]([O-])c2ccc(OC)cc2)cc1 [Hit 148] | -3 |
| COc1ccc(C(=O)C(O)c2ccc(OC)cc2)cc1 (stereo not shown) [Hit 149] | -1 |
| COc1ccc(CC(=O)c2ccc(OC)cc2)cc1 [Hit 150] | -3 |
| Oc1ccc(/C=C/c2ccc(Cl)cc2)cc1 [Hit 151] | -7 |
| COc1cccc(CC(C)NCC(O)c2ccc(O)c(O)c2)c1 (stereo not shown) [Hit 152] | 1 |
| O=C(CCCc1ccc([N+](=O)[O-])cc1)c1ccccc1 [Hit 153] | -6 |
| CNC(Cc1ccc(OC)cc1)c1ccc(OC)cc1 (stereo not shown) [Hit 154] | -2 |

target: T1, Aurora-A kinase; experiment: not given; details: Table S1, ChEMBL; ref Mortlock, et al., 2007; cited from earlier work

| Structure (SMILES) | Ki [nM] |
| --- | --- |
| COc1cc2c(Nc3cc(CC(=O)Nc4ccccc4)[nH]n3)ncnc2cc1OCCCN1CCC(CO)CC1 [Compound 1] | 1600 |
| COc1cc2c(Nc3cc(CC(=O)Nc4ccccc4F)[nH]n3)ncnc2cc1OCCCN1CCC(CO)CC1 [Compound 2] | 1400 |
| COc1cc2c(Nc3cc(CC(=O)Nc4ccc(F)cc4)[nH]n3)ncnc2cc1OCCCN1CCC(CO)CC1 [Compound 4] | 2000 |
| COc1cc2c(Nc3cc(CC(=O)Nc4cccc(F)c4F)[nH]n3)ncnc2cc1OCCCN1CCC(CO)CC1 [Compound 5] | 410 |
| COc1cc2c(Nc3cc(CC(=O)Nc4cc(F)cc(F)c4)[nH]n3)ncnc2cc1OCCCN1CCC(CO)CC1 [Compound 6] | 230 |
| COc1cc2c(Nc3cc(CC(=O)Nc4cccc(Cl)c4)[nH]n3)ncnc2cc1OCCCN1CCC(CO)CC1 [Compound 7] | 450 |
| COc1cc2c(Nc3cc(CC(=O)Nc4cccc(C#N)c4)[nH]n3)ncnc2cc1OCCCN1CCC(CO)CC1 [Compound 8] | 2600 |
| COc1cc2c(Nc3cc(CC(=O)Nc4cccc(O)c4)[nH]n3)ncnc2cc1OCCCN1CCC(CO)CC1 [Compound 9] | 4000 |
| COc1cccc(NC(=O)Cc2cc(Nc3ncnc4cc(OCCCN5CCC(CO)CC5)c(OC)cc34)n[nH]2)c1 [Compound 10] | 1900 |
| COc1cc2c(Nc3cc(CC(=O)Nc4cccc(C(F)(F)F)c4)[nH]n3)ncnc2cc1OCCCN1CCC(CO)CC1 [Compound 11] | 510 |
| COc1cc2c(Nc3cc(CC(=O)Nc4cccc(F)c4F)[nH]n3)ncnc2cc1OCCCN1CCN(CCO)CC1 [Compound 12] | 55 |
| COc1cc2c(Nc3cc(CC(=O)Nc4cccc(F)c4F)[nH]n3)ncnc2cc1OCCCN1CCC(O)CC1 [Compound 13] | 220 |
| COc1cc2c(Nc3cc(CC(=O)Nc4cccc(F)c4F)[nH]n3)ncnc2cc1OCCCN1CCC(CCO)CC1 [Compound 14] | 280 |
| COc1cc2c(Nc3cc(CC(=O)Nc4cccc(F)c4)[nH]n3)ncnc2cc1OCCCNCCO [Compound 15] | 690 |
| COc1cc2c(Nc3cc(CC(=O)Nc4cccc(F)c4)[nH]n3)ncnc2cc1OCCCN(C)CCO [Compound 16] | 65 |
| CCN(CCO)CCCOc1cc2ncnc(Nc3cc(CC(=O)Nc4cccc(F)c4)[nH]n3)c2cc1OC [Compound 17] | 190 |
| CCCN(CCO)CCCOc1cc2ncnc(Nc3cc(CC(=O)Nc4cccc(F)c4)[nH]n3)c2cc1OC [Compound 18] | 220 |
